The assay concerns Acinetobacter tartarogenes KB-112. The assay can be described thus: Effect of nonionic surfactant (0.1 %) on conversion of calcium cis-epoxysuccinate to L(+)-tartaric acid. The class given is cell-based. The conditions noted are these: 30° C., 2 days; for Mole Yields (%) of L(+)-tartaric acid: cis-epoxysuccinate 40 % as free acid, particle size 60 micron, not added: 34; for Rate of Residues (%) of cis-epoxysuccinic acid: residue of 12 g as free acid = 100 %, not added: 64. The method, then: Acinetobacter tartarogenes KB-112 are used to inoculate 30 ml of culture medium, contained in the Erlenmeyer flask of 200 ml-capacity, which culture medium having been set up into such constitution that, to the basic culture medium which is composed of casamino acid (0.05 %), ammonium nitrate (0.1 %), dipotassium hydrogen phosphate (0.2 %), magnesium sulfate (0.05 %), ferrous sulfate (0.001 %), pH 7.0, various sorts of nonionic surfactants are added so that the respective kinds of surface active agents may come to the concentration of 0.1 %. And simultaneously, the crystals of calcium cis-epoxysuccinate (average particle size: 60 micron) is added, in such way that it may come to the final concentration of 40 % counted as the free acid; and the above mixture is subjected to rotatory shake culture at 30° C., and for 2 days, and thence being allowed to exert reaction effect. After the termination of reaction, and the crystals are collected by filtration and, after addition of sulfuric acid, subjected to centrifugal separator to eliminate the solid substances. Subsequently, the quantitative determinations are made, with respect to L(+)-tartaric acid, by depending upon the optical rotation at 436 mμ; and with respect to the remaining cis-epoxysuccinic acid, by using Payne & Williams Method (G. B. Payne and P. H. Williams: Journal of Organic Chemistry, 24, 54, (1959)).

As for `CCCCCCCCCCCCCCCCCC(=O)OCC(O)CO` (stereo not drawn) [NIKKOL MGS-C, Glyceryl monostearate], the “Mole Yields (%) of L(+)-tartaric acid” value is reported as 48% and the “Rate of Residues (%) of cis-epoxysuccinic acid” value was 47%.
With “Propyleneglycol monostearate [NIKKOL PMS-SE]”, the “Mole Yields (%) of L(+)-tartaric acid” value was determined as 46% and the “Rate of Residues (%) of cis-epoxysuccinic acid” value is recorded as 50%.
For Sorbitan monooleate [NIKKOL SR-10] the same measures were 45% and 52%.

The record behind these values is US4028185A, “Method for producing L(+)-tartaric acid” (priority 1975, dated 1977).
